Data taken from ChEMBL document CHEMBL4052790, “Identification of a Novel TRPM8 Agonist from Nutmeg: A Promising Cooling Compound” (ACS Med Chem Lett, 2017).
Active and inactive are the calls of the source. The calls are words filed in the database; no cut-off is given here.

What follows are molecules tested against Transient receptor potential cation channel subfamily A member 1 (Homo sapiens, UniProt O75762) (assay: Agonist activity at recombinant human TRPA1 expressed in HEK293 cells assessed as increase in intracellular Ca2+ level pre-incubated for 5 mins by Fluo4-AM dye-based fluorescence assay).
Assay type: cell-based

Sequence of Transient receptor potential cation channel subfamily A member 1 (O75762 whole entry): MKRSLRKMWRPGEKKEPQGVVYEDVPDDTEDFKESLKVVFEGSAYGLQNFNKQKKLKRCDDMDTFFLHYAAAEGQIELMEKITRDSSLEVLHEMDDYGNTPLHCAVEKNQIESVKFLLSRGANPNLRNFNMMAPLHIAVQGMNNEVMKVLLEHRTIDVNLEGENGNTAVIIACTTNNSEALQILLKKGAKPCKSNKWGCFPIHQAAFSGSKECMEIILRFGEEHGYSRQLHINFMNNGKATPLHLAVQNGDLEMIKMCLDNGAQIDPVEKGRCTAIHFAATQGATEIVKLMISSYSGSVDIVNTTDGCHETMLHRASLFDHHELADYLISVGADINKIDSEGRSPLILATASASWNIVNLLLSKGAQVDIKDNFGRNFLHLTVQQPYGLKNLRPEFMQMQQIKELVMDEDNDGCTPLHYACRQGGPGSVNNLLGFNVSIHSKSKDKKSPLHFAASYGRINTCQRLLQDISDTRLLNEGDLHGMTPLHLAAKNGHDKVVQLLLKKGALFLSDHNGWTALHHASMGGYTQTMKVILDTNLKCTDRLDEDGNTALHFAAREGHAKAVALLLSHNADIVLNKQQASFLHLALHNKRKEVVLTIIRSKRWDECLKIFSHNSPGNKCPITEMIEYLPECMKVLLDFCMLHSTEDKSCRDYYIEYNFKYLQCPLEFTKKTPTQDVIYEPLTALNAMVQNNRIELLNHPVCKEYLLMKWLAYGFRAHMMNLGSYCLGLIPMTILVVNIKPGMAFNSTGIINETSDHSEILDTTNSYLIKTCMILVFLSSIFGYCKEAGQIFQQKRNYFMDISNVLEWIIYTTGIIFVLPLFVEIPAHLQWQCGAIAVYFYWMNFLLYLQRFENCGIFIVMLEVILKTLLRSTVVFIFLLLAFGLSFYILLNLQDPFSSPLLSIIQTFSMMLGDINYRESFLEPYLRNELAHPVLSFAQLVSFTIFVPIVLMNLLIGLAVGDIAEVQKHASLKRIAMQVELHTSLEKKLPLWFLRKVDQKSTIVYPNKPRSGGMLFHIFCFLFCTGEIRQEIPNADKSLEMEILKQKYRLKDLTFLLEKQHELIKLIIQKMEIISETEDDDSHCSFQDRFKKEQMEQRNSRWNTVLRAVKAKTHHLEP

Compound | EC50
C=CCc1cc(OC)c(OC(C)C(OCC)c2ccc(O)c(OC)c2)c(OC)c1 (mixture of isomers) | 19100 nM
CC(C)[C@@H]1CC[C@@H](C)C[C@H]1O [LEVOMENTHOL] | 96000 nM

These molecules were tested against Transient receptor potential cation channel subfamily V member 4 (Homo sapiens) (UniProt Q9HBA0) (assay: Agonist activity at recombinant human TRPV4 expressed in HEK293 cells assessed as increase in intracellular Ca2+ level pre-incubated for 5 mins by Fluo4-AM dye-based fluorescence assay).
Assay type: cell-based

Sequence of Transient receptor potential cation channel subfamily V member 4 (Homo sapiens) (Q9HBA0 whole entry): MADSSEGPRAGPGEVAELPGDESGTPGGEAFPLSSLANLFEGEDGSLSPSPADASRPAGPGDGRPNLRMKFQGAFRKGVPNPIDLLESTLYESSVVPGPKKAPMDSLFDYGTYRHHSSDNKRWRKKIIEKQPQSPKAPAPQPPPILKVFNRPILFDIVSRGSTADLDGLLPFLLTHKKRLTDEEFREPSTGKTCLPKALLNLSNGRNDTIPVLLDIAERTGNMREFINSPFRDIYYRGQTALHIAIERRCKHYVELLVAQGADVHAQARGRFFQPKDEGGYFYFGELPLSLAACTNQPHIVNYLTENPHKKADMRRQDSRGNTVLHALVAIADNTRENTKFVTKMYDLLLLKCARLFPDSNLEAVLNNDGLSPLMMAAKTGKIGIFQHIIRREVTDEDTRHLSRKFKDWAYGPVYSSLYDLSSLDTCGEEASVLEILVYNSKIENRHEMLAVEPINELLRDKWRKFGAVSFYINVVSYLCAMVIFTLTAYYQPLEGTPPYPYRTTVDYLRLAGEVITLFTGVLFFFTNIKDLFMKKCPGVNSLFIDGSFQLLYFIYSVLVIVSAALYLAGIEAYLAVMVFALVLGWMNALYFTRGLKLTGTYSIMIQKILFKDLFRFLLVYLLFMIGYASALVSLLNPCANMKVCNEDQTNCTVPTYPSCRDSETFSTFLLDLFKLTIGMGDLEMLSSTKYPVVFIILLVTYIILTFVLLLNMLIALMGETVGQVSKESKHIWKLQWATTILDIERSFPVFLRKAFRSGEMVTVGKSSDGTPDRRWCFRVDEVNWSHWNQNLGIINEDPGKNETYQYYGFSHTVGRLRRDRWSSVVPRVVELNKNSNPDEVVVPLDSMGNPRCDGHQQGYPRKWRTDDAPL

Compound | Activity
C=CCc1cc(OC)c(OC(C)C(OCC)c2ccc(O)c(OC)c2)c(OC)c1 (mixture of isomers) | inactive

The molecules below were run against T1, Transient receptor potential cation channel subfamily M member 8 (Homo sapiens, UniProt Q7Z2W7) (assay: Agonist activity at full length recombinant human TRPM8 expressed in HEK293 cells assessed as additive potentiation of 1 and 3 uM l-menthol-stimulated intracellular Ca2+ level at 0.03 uM by Fluo4-AM dye-based fluorescence assay).
Assay type: cell-based
Target sequence in this assay (Q7Z2W7 whole entry, looked up): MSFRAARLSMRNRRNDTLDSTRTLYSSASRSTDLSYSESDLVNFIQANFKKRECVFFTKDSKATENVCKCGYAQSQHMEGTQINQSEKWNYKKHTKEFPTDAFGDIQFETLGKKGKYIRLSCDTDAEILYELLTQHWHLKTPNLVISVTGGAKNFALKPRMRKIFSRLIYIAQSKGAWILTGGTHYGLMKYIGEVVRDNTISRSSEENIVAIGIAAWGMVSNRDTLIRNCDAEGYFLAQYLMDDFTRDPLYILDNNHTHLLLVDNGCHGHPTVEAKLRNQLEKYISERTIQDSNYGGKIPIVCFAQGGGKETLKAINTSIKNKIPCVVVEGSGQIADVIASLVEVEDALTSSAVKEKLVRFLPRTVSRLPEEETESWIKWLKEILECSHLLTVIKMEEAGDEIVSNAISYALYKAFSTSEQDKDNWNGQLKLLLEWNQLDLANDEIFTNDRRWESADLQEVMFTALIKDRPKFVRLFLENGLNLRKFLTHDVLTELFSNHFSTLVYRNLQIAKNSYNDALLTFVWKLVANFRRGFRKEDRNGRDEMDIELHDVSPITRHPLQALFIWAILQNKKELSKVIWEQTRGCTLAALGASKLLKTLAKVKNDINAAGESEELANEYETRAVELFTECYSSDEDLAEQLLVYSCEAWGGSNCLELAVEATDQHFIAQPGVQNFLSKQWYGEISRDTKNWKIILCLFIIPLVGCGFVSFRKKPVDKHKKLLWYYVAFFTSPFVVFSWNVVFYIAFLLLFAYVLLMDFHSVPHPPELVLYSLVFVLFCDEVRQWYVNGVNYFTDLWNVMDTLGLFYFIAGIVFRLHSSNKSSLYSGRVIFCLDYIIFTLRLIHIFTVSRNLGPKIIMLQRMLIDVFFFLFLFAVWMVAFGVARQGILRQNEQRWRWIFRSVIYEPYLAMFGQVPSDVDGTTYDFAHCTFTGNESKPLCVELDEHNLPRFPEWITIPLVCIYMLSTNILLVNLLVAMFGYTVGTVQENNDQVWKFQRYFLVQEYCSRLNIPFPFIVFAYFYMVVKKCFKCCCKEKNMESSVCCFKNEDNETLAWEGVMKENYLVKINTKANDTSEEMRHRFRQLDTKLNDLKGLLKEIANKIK

Compound | Activity
C=CCc1cc(OC)c(OC(C)C(OCC)c2ccc(O)c(OC)c2)c(OC)c1 (mixture of isomers) | Active

Species on record: Homo sapiens
Assay: Induction of cooling effect in human at 0.02% measured immediately after washing by simple mouth washing method
Assay type: functional

Compound | Activity
CC(C)[C@@H]1CC[C@@H](C)C[C@H]1O [LEVOMENTHOL] | Active

The molecules below were run against T2, Transient receptor potential cation channel subfamily V member 3 (Homo sapiens) (UniProt Q8NET8) (assay: Agonist activity at recombinant human TRPV3 expressed in HEK293 cells assessed as increase in intracellular Ca2+ level pre-incubated for 5 mins by Fluo4-AM dye-based fluorescence assay).
T2 sequence (whole entry): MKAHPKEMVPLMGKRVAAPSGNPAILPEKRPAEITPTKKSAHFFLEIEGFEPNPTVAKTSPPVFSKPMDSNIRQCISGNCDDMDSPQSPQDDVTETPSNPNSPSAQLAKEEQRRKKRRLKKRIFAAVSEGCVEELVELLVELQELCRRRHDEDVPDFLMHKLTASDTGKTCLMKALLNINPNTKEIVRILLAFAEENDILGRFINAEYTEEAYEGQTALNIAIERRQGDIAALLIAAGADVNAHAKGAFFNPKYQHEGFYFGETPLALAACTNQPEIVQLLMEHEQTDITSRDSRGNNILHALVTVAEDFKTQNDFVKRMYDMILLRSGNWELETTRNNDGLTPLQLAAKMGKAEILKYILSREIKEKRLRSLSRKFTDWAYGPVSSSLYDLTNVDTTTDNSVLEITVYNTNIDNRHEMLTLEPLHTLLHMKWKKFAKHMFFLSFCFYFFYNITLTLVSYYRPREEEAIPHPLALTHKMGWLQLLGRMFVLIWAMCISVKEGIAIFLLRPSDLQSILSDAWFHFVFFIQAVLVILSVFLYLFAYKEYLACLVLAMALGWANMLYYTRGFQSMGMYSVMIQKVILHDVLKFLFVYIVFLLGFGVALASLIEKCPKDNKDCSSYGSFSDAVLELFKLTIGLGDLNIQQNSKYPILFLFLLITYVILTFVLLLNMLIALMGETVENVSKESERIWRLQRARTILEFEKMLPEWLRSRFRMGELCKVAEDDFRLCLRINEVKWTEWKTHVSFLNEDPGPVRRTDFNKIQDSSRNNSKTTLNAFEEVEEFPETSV
Assay type: cell-based

Compound | Activity
C=CCc1cc(OC)c(OC(C)C(OCC)c2ccc(O)c(OC)c2)c(OC)c1 (mixture of isomers) | inactive

Species on record: Homo sapiens
Assay: Induction of cooling effect in human at 0.02% measured after few mins after washing by simple mouth washing method
Assay type: functional

Compound | Activity
C=CCc1cc(OC)c(OC(C)C(OCC)c2ccc(O)c(OC)c2)c(OC)c1 (mixture of isomers) | Active

These molecules were tested against T1, Transient receptor potential cation channel subfamily M member 8 (assay: Agonist activity at full length recombinant human TRPM8 expressed in HEK293 cells assessed as increase in intracellular Ca2+ level pre-incubated for 5 mins by Fluo4-AM dye-based fluorescence assay).
Assay type: cell-based
Target sequence in this assay (Q7Z2W7 whole entry): as the sequence (Q7Z2W7 whole entry, looked up) above

EC50 | Compound
332 nM | C=CCc1cc(OC)c(OC(C)C(OCC)c2ccc(O)c(OC)c2)c(OC)c1 (mixture of isomers)
3450 nM | C=CCc1cc(OC)c(OC(C)C(OC)c2ccc(O)c(OC)c2)c(OC)c1 (configuration not stated)
82 nM | C=CCc1cc(OC)c(OC(C)C(OC(C)C)c2ccc(O)c(OC)c2)c(OC)c1 (configuration not stated)
1150 nM | C=CCc1cc(OC)c(O[C@H](C)[C@@H](OCC)c2ccc(O)c(OC)c2)c(OC)c1
1130 nM | C=CCc1cc(OC)c(O[C@@H](C)[C@H](OCC)c2ccc(O)c(OC)c2)c(OC)c1
583 nM | C=CCc1cc(OC)c(O[C@H](C)[C@H](OCC)c2ccc(O)c(OC)c2)c(OC)c1
138 nM | C=CCc1cc(OC)c(OC(C)C(OCC(C)C)c2ccc(O)c(OC)c2)c(OC)c1 (configuration not stated)
> 10000 nM | C=CCc1cc(OC)c(O[C@H](C)[C@@H](OC(C)=O)c2ccc(O)c(OC)c2)c(OC)c1

The remaining lines, values behind:

Compound | EC50
C=CCc1cc(OC)c(O[C@H](C)[C@@H](O)c2ccc(OC)c(OC)c2)c(OC)c1 | > 10000 nM
C=CCc1cc(OC)c(OC(C)C(OC2CCCCC2)c2ccc(O)c(OC)c2)c(OC)c1 (configuration not stated) | 54 nM
C=CCc1cc(OC)c(OC(C)C(O[C@@H]2C[C@H](C)CC[C@H]2C(C)C)c2ccc(O)c(OC)c2)c(OC)c1 (some centres not stated) | 28 nM
C=CCc1cc(OC)c(OC(C)C(O[C@H]2C[C@@H](C)CC[C@@H]2C(C)C)c2ccc(O)c(OC)c2)c(OC)c1 (some centres not stated) | 11 nM
C=CCc1cc(OC)c(OC(C)C(OCCCCCCCCCC)c2ccc(O)c(OC)c2)c(OC)c1 (configuration not stated) | 66 nM
C=CCc1cc(OC)c(OC(C)C(OCCCCCCCC)c2ccc(O)c(OC)c2)c(OC)c1 (configuration not stated) | 86 nM
C=CCc1cc(OC)c(O[C@H](C)[C@@H](OC(C)=O)c2ccc(OC)c(OC)c2)c(OC)c1 | > 10000 nM
C=CCc1cc(OC)c(OC(C)C(OCCOCCCC)c2ccc(O)c(OC)c2)c(OC)c1 (configuration not stated) | 153 nM
C=CCc1cc(OC)c(OC(C)C(O)c2ccc(O)c(OC)c2)c(OC)c1 (racemic) | > 10000 nM
C=CCc1cc(OC)c(OC(C)C(OCCCCCC)c2ccc(O)c(OC)c2)c(OC)c1 (configuration not stated) | 329 nM

Each molecule was assayed on Transient receptor potential cation channel subfamily M member 8 (Homo sapiens), Q7Z2W7 [Y745H] (assay: Agonist activity at full length recombinant human TRPM8 Y745H mutant expressed in HEK293 cells at 0.3 to 3 uM by Fluo4-AM dye-based fluorescence assay).
Assay type: cell-based

Sequence of Transient receptor potential cation channel subfamily M member 8 (Homo sapiens), Q7Z2W7 [Y745H] (Q7Z2W7 whole entry Y745H): as the sequence (Q7Z2W7 whole entry, looked up) above, with Y745H counted along it

Compound | Activity
C=CCc1cc(OC)c(OC(C)C(OCC)c2ccc(O)c(OC)c2)c(OC)c1 (mixture of isomers) | Active

What follows are molecules tested against Transient receptor potential cation channel subfamily V member 1 (Homo sapiens) (UniProt Q8NER1) (assay: Agonist activity at recombinant human TRPV1 expressed in HEK293 cells assessed as increase in intracellular Ca2+ level pre-incubated for 5 mins by Fluo4-AM dye-based fluorescence assay).
Assay type: cell-based

Sequence of Transient receptor potential cation channel subfamily V member 1 (Homo sapiens) (Q8NER1 whole entry): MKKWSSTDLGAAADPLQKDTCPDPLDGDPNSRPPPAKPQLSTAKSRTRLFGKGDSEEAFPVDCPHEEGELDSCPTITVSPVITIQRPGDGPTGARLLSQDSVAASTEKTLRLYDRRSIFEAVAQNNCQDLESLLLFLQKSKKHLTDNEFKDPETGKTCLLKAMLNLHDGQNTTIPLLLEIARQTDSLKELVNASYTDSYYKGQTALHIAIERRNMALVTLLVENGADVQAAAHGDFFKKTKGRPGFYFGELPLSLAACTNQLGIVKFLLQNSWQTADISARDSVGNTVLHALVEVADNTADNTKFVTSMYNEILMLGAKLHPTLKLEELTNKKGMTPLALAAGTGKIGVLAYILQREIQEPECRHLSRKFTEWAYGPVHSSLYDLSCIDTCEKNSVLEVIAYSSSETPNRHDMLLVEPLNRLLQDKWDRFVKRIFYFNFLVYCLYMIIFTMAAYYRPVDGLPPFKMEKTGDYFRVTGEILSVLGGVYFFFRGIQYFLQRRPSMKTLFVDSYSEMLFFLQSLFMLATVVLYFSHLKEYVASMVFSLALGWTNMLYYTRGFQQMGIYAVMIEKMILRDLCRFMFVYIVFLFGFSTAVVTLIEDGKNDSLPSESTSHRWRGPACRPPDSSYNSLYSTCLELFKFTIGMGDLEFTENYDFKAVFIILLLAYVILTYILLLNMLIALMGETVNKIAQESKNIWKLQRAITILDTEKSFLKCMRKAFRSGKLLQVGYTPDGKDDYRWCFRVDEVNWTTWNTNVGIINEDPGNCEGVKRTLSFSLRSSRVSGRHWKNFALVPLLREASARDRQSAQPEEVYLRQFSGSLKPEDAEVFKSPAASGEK

Compound | Activity
C=CCc1cc(OC)c(OC(C)C(OCC)c2ccc(O)c(OC)c2)c(OC)c1 (mixture of isomers) | inactive
